{"source": "BigSolDB 2.1", "data": [{"smiles": "COC(=O)Nc1nc2ccccc2[nH]1", "values": [{"measurement": "solubility (mole fraction)", "setting": "in DMF, 278.15 K", "value": 0.000786}, {"measurement": "solubility (mole fraction)", "setting": "in DMF, 283.15 K", "value": 0.000861}, {"measurement": "solubility (mole fraction)", "setting": "in DMF, 288.15 K", "value": 0.000931}, {"measurement": "solubility (mole fraction)", "setting": "in DMF, 293.15 K", "value": 0.00101}, {"measurement": "solubility (mole fraction)", "setting": "in DMF, 298.15 K", "value": 0.0011}, {"measurement": "solubility (mole fraction)", "setting": "in DMF, 303.15 K", "value": 0.00119}, {"measurement": "solubility (mole fraction)", "setting": "in DMF, 308.15 K", "value": 0.00128}, {"measurement": "solubility (mole fraction)", "setting": "in DMF, 313.15 K", "value": 0.00138}, {"measurement": "solubility (mole fraction)", "setting": "in DMF, 318.15 K", "value": 0.00148}, {"measurement": "solubility (mole fraction)", "setting": "in ethanol, 278.15 K", "value": "8.29e-06"}, {"measurement": "solubility (mole fraction)", "setting": "in ethanol, 283.15 K", "value": "1.14e-05"}, {"measurement": "solubility (mole fraction)", "setting": "in ethanol, 288.15 K", "value": "1.66e-05"}, {"measurement": "solubility (mole fraction)", "setting": "in ethanol, 293.15 K", "value": "2.28e-05"}, {"measurement": "solubility (mole fraction)", "setting": "in ethanol, 298.15 K", "value": "3.16e-05"}, {"measurement": "solubility (mole fraction)", "setting": "in ethanol, 303.15 K", "value": "4.28e-05"}, {"measurement": "solubility (mole fraction)", "setting": "in ethanol, 308.15 K", "value": "5.74e-05"}, {"measurement": "solubility (mole fraction)", "setting": "in ethanol, 313.15 K", "value": "7.63e-05"}, {"measurement": "solubility (mole fraction)", "setting": "in ethanol, 318.15 K", "value": "9.98e-05"}, {"measurement": "solubility (mole fraction)", "setting": "in methanol, 278.15 K", "value": "3.23e-05"}, {"measurement": "solubility (mole fraction)", "setting": "in methanol, 283.15 K", "value": "4.07e-05"}, {"measurement": "solubility (mole fraction)", "setting": "in methanol, 288.15 K", "value": "5.29e-05"}, {"measurement": "solubility (mole fraction)", "setting": "in methanol, 293.15 K", "value": "6.59e-05"}, {"measurement": "solubility (mole fraction)", "setting": "in methanol, 298.15 K", "value": "7.95e-05"}, {"measurement": "solubility (mole fraction)", "setting": "in methanol, 303.15 K", "value": "9.95e-05"}, {"measurement": "solubility (mole fraction)", "setting": "in methanol, 308.15 K", "value": 0.000121}, {"measurement": "solubility (mole fraction)", "setting": "in methanol, 313.15 K", "value": 0.000147}, {"measurement": "solubility (mole fraction)", "setting": "in methanol, 318.15 K", "value": 0.000176}, {"measurement": "solubility (mole fraction)", "setting": "in n-propanol, 278.15 K", "value": "3.28e-06"}, {"measurement": "solubility (mole fraction)", "setting": "in n-propanol, 283.15 K", "value": "4.97e-06"}, {"measurement": "solubility (mole fraction)", "setting": "in n-propanol, 288.15 K", "value": "8.18e-06"}, {"measurement": "solubility (mole fraction)", "setting": "in n-propanol, 293.15 K", "value": "1.24e-05"}, {"measurement": "solubility (mole fraction)", "setting": "in n-propanol, 298.15 K", "value": "1.85e-05"}, {"measurement": "solubility (mole fraction)", "setting": "in n-propanol, 303.15 K", "value": "2.73e-05"}, {"measurement": "solubility (mole fraction)", "setting": "in n-propanol, 308.15 K", "value": "4.04e-05"}, {"measurement": "solubility (mole fraction)", "setting": "in n-propanol, 313.15 K", "value": "5.82e-05"}, {"measurement": "solubility (mole fraction)", "setting": "in n-propanol, 318.15 K", "value": "8.34e-05"}, {"measurement": "solubility (mole fraction)", "setting": "in water, 278.15 K", "value": "3.3e-07"}, {"measurement": "solubility (mole fraction)", "setting": "in water, 283.15 K", "value": "4e-07"}, {"measurement": "solubility (mole fraction)", "setting": "in water, 288.15 K", "value": "4.91e-07"}, {"measurement": "solubility (mole fraction)", "setting": "in water, 293.15 K", "value": "6e-07"}, {"measurement": "solubility (mole fraction)", "setting": "in water, 298.15 K", "value": "7.35e-07"}, {"measurement": "solubility (mole fraction)", "setting": "in water, 303.15 K", "value": "8.59e-07"}, {"measurement": "solubility (mole fraction)", "setting": "in water, 308.15 K", "value": "1.02e-06"}, {"measurement": "solubility (mole fraction)", "setting": "in water, 313.15 K", "value": "1.21e-06"}, {"measurement": "solubility (mole fraction)", "setting": "in water, 318.15 K", "value": "1.43e-06"}]}]}
